# Measurements from ChEMBL document CHEMBL1138054, “Synthesis, molecular characterization, and biological activity of novel synthetic derivatives of chromen-4-one in human cancer cells” (J Med Chem, 2006).
# What was measured:
# PC-3 = experiment: Antiproliferative activity against human PC3 cell line by MTT assay; format: functional, cell-based
# BT-20 = experiment: Antiproliferative activity against human BT20 cell line by MTT assay; format: functional, cell-based
# BXPC-3 = experiment: Antiproliferative activity against human BxPC3 cell line by MTT assay; format: functional, cell-based
# COLO357 = experiment: Antiproliferative activity against human COLO357 cell line by MTT assay; format: functional, cell-based
# [1] = target: RAC-alpha serine/threonine-protein kinase (Homo sapiens, UniProt P31749); experiment: Inhibition of Akt by fluorescence polarization assay
# Sequence of RAC-alpha serine/threonine-protein kinase (P31749 whole entry): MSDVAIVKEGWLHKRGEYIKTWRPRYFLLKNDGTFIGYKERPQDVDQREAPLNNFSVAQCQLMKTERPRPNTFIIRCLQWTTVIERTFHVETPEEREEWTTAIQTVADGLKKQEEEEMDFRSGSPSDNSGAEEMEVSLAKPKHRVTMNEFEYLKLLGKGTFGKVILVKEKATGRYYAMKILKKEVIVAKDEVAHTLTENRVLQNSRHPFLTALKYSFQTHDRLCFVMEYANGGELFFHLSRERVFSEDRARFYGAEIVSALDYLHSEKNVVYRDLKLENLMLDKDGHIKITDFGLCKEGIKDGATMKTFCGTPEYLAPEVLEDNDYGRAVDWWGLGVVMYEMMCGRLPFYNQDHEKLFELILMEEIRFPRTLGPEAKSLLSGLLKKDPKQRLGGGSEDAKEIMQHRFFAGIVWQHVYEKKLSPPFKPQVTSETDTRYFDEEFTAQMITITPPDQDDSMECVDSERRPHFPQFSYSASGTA
compound,measurement,setting,value
O=c1c(-c2ccc(O)cc2)coc2cc(O)cc(O)c12 [GENISTEIN],IC50,PC-3,50 µM
same,IC50,BT-20,46 µM
same,IC50,BXPC-3,30 µM
same,IC50,COLO357,50 µM
same,IC50,[1],> 70 µM
